Test results reported in patent publication US4556673A, “Use of phthalyltaurine sulfonamide derivatives in treating epilepsy and arrythmia” (priority 1980, dated 1985).
Like-named read-outs stand apart in the source and are kept apart here.

Legend:
[1] = system: convulsions induced by electrical stimulation (maximal electroshock); test: Maximal electroshock test (MES), 50 mA electrical stimulation; format: in vivo, mice; conditions: Mus musculus, ip, read-out: Anticonvulsive activity ED50, MES
Excerpt: (§1) The anticonvulsive effect of the compounds was studied on three types of experimental epilepsy. Convulsions were induced in mice by subcutaneous administration of pentylene tetrazole or strychnine, or by electrical stimulation with a 50 mA current (E. A. Swinyard, Assay of antiepileptic drug activity in experimental animals: Standard tests in International Enocyclopedica of Pharmacology and Therapeutics, Section 19, vol 1: Anticonvulsant Drugs, 1972). […] No sedative effect could be observed.
MES = maximal electroshock test

[2] = system: convulsions induced by pentylene tetrazole; test: Metrazole (pentylene tetrazole) convulsant threshold test (MET); format: in vivo, mice; conditions: Mus musculus, ip, read-out: Anticonvulsive activity ED50, MET
Excerpt: as §1
MET = metrazole (= pentylene tetrazole) convulsant threshold test.

[3] = system: convulsions induced by strychnine; test: Strychnine convulsant threshold test (STR); format: in vivo, mice; conditions: Mus musculus, ip, read-out: Anticonvulsive activity ED50, STR
Excerpt: as §1
STR = strychnine convulsant threshold test

[4] = system: arrhythmia in guinea-pigs after infusion of ouabain; test: Ouabain-induced arrhythmia in guinea-pigs; conditions: for Ouabain dose ± SE, inducing arrhythmia / Ouabain dose ± SE, inducing asystole: ouabain 20 μg/kg/min.
Excerpt: Arrhythmia was induced by K^+ deficiency and by aconitine. […] Besides the above-described in vitro tests, an in vivo method was used: the antiarrhythmic effect of the compounds was studied in quineapigs with ouabain-induced arrhythmia.

bacteria = conditions: cited from earlier work
[5] = system: hexobarbiturate-induced sleep in mice; test: Hexobarbiturate-induced sleep; format: in vivo
[6] = system: convulsions induced by pentylene tetrazole, strychnine or electrical stimulation; test: Anticonvulsive effect in three types of experimental epilepsy; format: in vivo, mice; conditions: in words
Excerpt: as §1

arrhythmia = test: Antiarrhythmic effect (general statement); conditions: in words
Excerpt: Isolated perfused rat heart, prepared after the method of Langendorff, and isolated spontaneously beating rat atria (W. C. Holland & J. H. Burn, J. Brit. Med., vol 1, 1031, 1958) were used for studies of the antiarrhythmic effect of the compounds. Arrhythmia was induced by K^+ deficiency and by aconitine. […] Besides the above-described in vitro tests, an in vivo method was used: the antiarrhythmic effect of the compounds was studied in quineapigs with ouabain-induced arrhythmia.

[7] = injectable forms; cited from earlier work
[8] = mice, intraperitoneal; cited from earlier work
experimental epilepsy = conditions: several types of experimental epilepsy; cited from earlier work
epileptic patients = conditions: cited from earlier work
[9] = mice, maximal electroshock test
[10] = mice, metrazole convulsant threshold test
[11] = O-value (initial), group dosed 12 mg/kg iv
[12] = O-value (initial), group dosed 3 mg/kg iv
[13] = O-value (initial), group dosed 6 mg/kg iv

| Compound | ED50 [1, 9] | ED50 [2, 10] | ED50 [3] | HR ± SE, 5 min. after adm. of test compound ([4]; 3 mg/kg iv) | Ouabain dose ± SE, inducing arrhythmia ([4]; 3 mg/kg iv) | Ouabain dose ± SE, inducing asystole ([4]; 3 mg/kg iv) | HR ± SE, 5 min. after adm. of test compound ([4]; 6 mg/kg iv) | Ouabain dose ± SE, inducing arrhythmia ([4]; 6 mg/kg iv) | Ouabain dose ± SE, inducing asystole ([4]; 6 mg/kg iv) | HR ± SE, O-value [4, 12] | HR ± SE, O-value [4, 13] | further results |
| --- | --- | --- | --- | --- | --- | --- | --- | --- | --- | --- | --- | --- |
| NS(=O)(=O)CCN1C(=O)c2ccccc2C1=O [2-Phthalimidoethanesulfone amide, 2-phthalimidoethane sulfonamide] | 122 mg/kg | > 300 mg/kg | 93 mg/kg |  |  |  |  |  |  |  |  | HR ± SE, 5 min. after adm. of test compound ([4]; 12 mg/kg iv): 330 beats/min.; Ouabain dose ± SE, inducing arrhythmia ([4]; 12 mg/kg iv): 0.17 mg/kg; Ouabain dose ± SE, inducing asystole ([4]; 12 mg/kg iv): 0.22 mg/kg; HR ± SE, O-value [4, 11]: 333 beats/min.; Antibacterial properties (bacteria): did not come up to expectations |
| CN(C)S(=O)(=O)CCN1C(=O)c2ccccc2C1=O [2-Phthalimidoethanesulfone dimethylamide, 2-phthalimidoethanesulfone dimethylamide] | 113 mg/kg | 231 mg/kg | 234 mg/kg |  |  |  |  |  |  |  |  | Antibacterial properties (bacteria): did not come up to expectations |
| CCNS(=O)(=O)CCN1C(=O)c2ccccc2C1=O [2-Phthalimidoethanesulfone ethylamide] | 103 mg/kg | 138 mg/kg | 126 mg/kg | 332 ± 16 beats/min. | 0.175 ± 0.005 mg/kg | 0.318 ± 0.022 mg/kg | 270 beats/min. | 0.15 mg/kg | 0.36 mg/kg | 332 ± 22 beats/min. | 285 beats/min. |  |
| CC(C)NS(=O)(=O)CCN1C(=O)c2ccccc2C1=O [2-Phthalimidoethanesulfone isopropylamide] |  |  | 227 mg/kg | 312 ± 27 beats/min. | 0.197 ± 0.032 mg/kg | 0.297 ± 0.027 mg/kg | 291 beats/min. | 0.155 mg/kg | 0.29 mg/kg | 321 ± 39 beats/min. | 303 beats/min. | ED50 [1]: 130 mg/kg; ED50 [2]: > 300 mg/kg |
| CNS(=O)(=O)CCN1C(=O)c2ccccc2C1=O [2-Phthalimidoethanesulfone methylamide] | 112 mg/kg | 170 mg/kg | 189 mg/kg |  |  |  | 255 ± 51 beats/min. | 0.188 ± 0.017 mg/kg | 0.345 ± 0.02 mg/kg |  | 261 ± 45 beats/min. | HR ± SE, 5 min. after adm. of test compound ([4]; 12 mg/kg iv): 399 ± 22 beats/min.; Ouabain dose ± SE, inducing arrhythmia ([4]; 12 mg/kg iv): 0.195 ± 0.015 mg/kg; Ouabain dose ± SE, inducing asystole ([4]; 12 mg/kg iv): 0.265 ± 0.05 mg/kg; HR ± SE, O-value [4, 11]: 369 ± 30 beats/min. |
| CCCCNS(=O)(=O)CCN1C(=O)c2ccccc2C1=O [2-Phthalimidoethanesulfone n-butylamide] | 219 mg/kg | > 300 mg/kg |  | 213 beats/min. | 0.175 mg/kg | 0.34 mg/kg | 256 ± 43 beats/min. | 0.2 ± 0 mg/kg | 0.382 ± 0.037 mg/kg | 210 beats/min. | 256 ± 19 beats/min. |  |
| CCCNS(=O)(=O)CCN1C(=O)c2ccccc2C1=O [2-Phthalimidoethanesulfone n-propylamide] | 252 mg/kg | > 300 mg/kg | > 300 mg/kg | 294 ± 45 beats/min. | 0.16 ± 0.01 mg/kg | 0.322 ± 0.062 mg/kg |  |  |  | 286 ± 55 beats/min. |  | HR ± SE, 5 min. after adm. of test compound ([4]; 2 mg/kg iv): 243 ± 18 beats/min.; Ouabain dose ± SE, inducing arrhythmia ([4]; 2 mg/kg iv): 0.165 ± 0.01 mg/kg; Ouabain dose ± SE, inducing asystole ([4]; 2 mg/kg iv): 0.272 ± 0.027 mg/kg; HR ± SE, O-value ([4]; O-value (initial), group dosed 2 mg/kg iv): 229 ± 34 beats/min. |
| O=C1c2ccccc2C(=O)N1CCS(=O)(=O)N1CCCC1 [2-Phthalimidoethanesulfone pyrrolidide] | > 300 mg/kg | > 300 mg/kg |  |  |  |  |  |  |  |  |  |  |
| CC(C)(C)NS(=O)(=O)CCN1C(=O)c2ccccc2C1=O [2-Phthalimidoethanesulfone tert-butylamide] | > 300 mg/kg | > 300 mg/kg |  |  |  |  |  |  |  |  |  |  |
| CC(=O)NS(=O)(=O)CCN1C(=O)c2ccccc2C1=O [2-Phthalimidoethanesulfonyl acetamide, 2-phthalimidoethanesulfonyl acetamide] | > 300 mg/kg | > 300 mg/kg |  | 259 ± 10 beats/min. | 0.215 ± 0.024 mg/kg | 0.355 ± 0.02 mg/kg | 334 ± 11 beats/min. | 0.212 ± 0.016 mg/kg | 0.345 ± 0.026 mg/kg | 260 ± 9 beats/min. | 329 ± 15 beats/min. | HR ± SE, 5 min. after adm. of test compound ([4]; 1 mg/kg iv): 316 ± 10 beats/min.; Ouabain dose ± SE, inducing arrhythmia ([4]; 1 mg/kg iv): 0.185 ± 0.005 mg/kg; Ouabain dose ± SE, inducing asystole ([4]; 1 mg/kg iv): 0.307 ± 0.002 mg/kg; HR ± SE, 5 min. after adm. of test compound ([4]; 12 mg/kg iv): 349 ± 19 beats/min.; Ouabain dose ± SE, inducing arrhythmia ([4]; 12 mg/kg iv): 0.21 ± 0.016 mg/kg; Ouabain dose ± SE, inducing asystole ([4]; 12 mg/kg iv): 0.36 ± 0.013 mg/kg; HR ± SE, O-value ([4]; O-value (initial), group dosed 1 mg/kg iv): 292 ± 1 beats/min.; HR ± SE, O-value [4, 11]: 329 ± 19 beats/min.; Prolongation of hexobarbiturate-induced sleep [5]: did not prolong the time of sleep; Anticonvulsive effect [6]: no anticonvulsive effect; Antiarrhythmic effect (arrhythmia): had an antiarrhythmic |
| CC(=O)NCCS(=O)(=O)O [N-acetyl taurine] |  |  |  |  |  |  |  |  |  |  |  | Penetration of the blood-brain barrier [7]: penetrate the bloodbrain barrier |
| CC(C)(C)C(=O)NCCS(=O)(=O)O [N-pivaloyl taurine] |  |  |  |  |  |  |  |  |  |  |  | Penetration of the blood-brain barrier [8]: penetrated the blood-brain barrier |
| CC(C)NCC(O)COc1cccc2ccccc12 (stereo not drawn) [Propranolol, reference compound] |  |  |  |  | 0.295 ± 0.035 mg/kg | 0.435 ± 0.024 mg/kg |  | 0.269 ± 0.039 mg/kg | 0.418 ± 0.034 mg/kg |  |  | Ouabain dose ± SE, inducing arrhythmia ([4]; 1 mg/kg iv): 0.24 ± 0.005 mg/kg; Ouabain dose ± SE, inducing asystole ([4]; 1 mg/kg iv): 0.363 ± 0.011 mg/kg; HR ± SE, O-value ([4]; guinea pig, in vivo, iv, 1 mg/kg): 280 ± 17 beats/min.; HR ± SE, O-value ([4]; guinea pig, in vivo, iv, 3 mg/kg): 293 ± 17 beats/min.; HR ± SE, O-value ([4]; guinea pig, in vivo, iv, 6 mg/kg): 301 ± 10 beats/min.; Bradycardia ([4]; guinea-pigs): caused bradycardia |
| NCCS(=O)(=O)O [Taurine, 2-aminoethanesulfonic acid] |  |  |  |  |  |  |  |  |  |  |  | Direct central anticonvulsive effect (experimental epilepsy): direct central anticonvulsive effect; Antiepileptic action (epileptic patients): antiepileptic action |
